Results reported in patent US6951889B2, “2-amino-2-alkyl-5 heptenoic and heptynoic acid derivatives useful as nitric oxide synthase inhibitors” (Pharmacia Corporation, priority 2000, dated 2005).
pIC50: −log10 of the molar value.

Columns and labels:
[1] = system: LPS-induced increase in plasma nitrite/nitrate levels; test: In vivo assay in endotoxin-treated rats; settings: Rattus norvegicus, po, administered orally 0.5-1 hours prior to LPS, plasma nitrite/nitrate 5 hours following LPS, read-out: ED50 for inhibition of the LPS-induced increase in plasma nitrite/nitrate levels
Protocol: Compounds are administered orally 0.5-1 hours prior to LPS administration and plasma nitrite/nitrate levels are determined 5 hours following LPS administration.

[2] = system: nitrite production in human cartilage explants induced with recombinant human IL-1β; test: Human cartilage explant assay; assay type: cell-based; settings: six concentrations of inhibitor, read-out: IC50 inhibition of nitrite production
Protocol: Bone pieces are rinsed twice with Dulbecco's Phosphate Buffered Saline (GibcoBRL) and once with Dulbecco's Modified Eagles Medium (GibcoBRL) and placed into a petri dish with phenol red free Minimum Essential Medium (MEM) (GibcoBRL). Cartilage was cut into small explants of approximately 15-45 mg in weight and one or two explants per well are placed into either 96 or 48 well culture plates with 200-500 μL of culture media per well. The culture media was either a custom modification of Minimum Essential Medium(Eagle) with Earle's salts (GibcoBRL) prepared without L-Arginine, without L-Glutamine and without phenol red or a custom modification of serumless Neuman and Tytell (GibcoBRL) medium prepared without L-arginine, without insulin, without ascorbic acid, without L-glutamine and without phenol red. […]
The day old supernatant is then discarded and replaced with fresh culture media containing recombinant human IL-1β and compound and incubated for another 20-24 hours. This supernatant is analyzed for nitrite with a fluorometric assay (Misko et al, Anal. Biochem., 214, 11-16, 1993). […] IC50 values (Table III) are determined from plotting the percent inhibition of nitrite production at six different concentrations of inhibitor.

`CC(=N)NC/C(F)=C\CC[C@](C)(N)C(=O)O.Cl.Cl` [Example 1, (2S,5E)-2-amino-2-methyl-6-fluoro-7-[(1-iminoethyl)amino]-5-heptenoic acid, Dihydrochloride] gave an ED50 [1] of 0.4 mg/kg and a pIC50 [2] of 6.40.

In the case of `CC(=N)NC/C=C\CC[C@](C)(N)C(=O)O.Cl.Cl` [Example 14, (2S,5Z)-2-amino-2-methyl-7-[(1-iminoethyl)amino]-5-heptenoic acid, Dihydrochloride], the ED50 [1] was 0.3 mg/kg and the pIC50 [2] was 6.10.
